Assay results: article PMC5908784, “Extracellular loops 2 and 3 of the calcitonin receptor selectively modify agonist binding and efficacy” (Biochemical Pharmacology, 2018)
Residue numbers refer to the chain shown, from its start. Where a SMILES comes first, the peptide text is derived from it. Bridges are numbered along the chain shown (N, C = ends).

Tests used:
Assay in all cases: IP1 accumulation
Format in all cases: cell-based
Details in all cases: mean ± S.E.M.; for Emax: IP1 maximal response, SEM
hCTR I371A = molecular target: T1, hCTR I371A (Homo sapiens, UniProt P30988, I371A)
T1 construct: c-Myc (N); expressed in transfected cells
T1 sequence (P30988 25-474 I371A): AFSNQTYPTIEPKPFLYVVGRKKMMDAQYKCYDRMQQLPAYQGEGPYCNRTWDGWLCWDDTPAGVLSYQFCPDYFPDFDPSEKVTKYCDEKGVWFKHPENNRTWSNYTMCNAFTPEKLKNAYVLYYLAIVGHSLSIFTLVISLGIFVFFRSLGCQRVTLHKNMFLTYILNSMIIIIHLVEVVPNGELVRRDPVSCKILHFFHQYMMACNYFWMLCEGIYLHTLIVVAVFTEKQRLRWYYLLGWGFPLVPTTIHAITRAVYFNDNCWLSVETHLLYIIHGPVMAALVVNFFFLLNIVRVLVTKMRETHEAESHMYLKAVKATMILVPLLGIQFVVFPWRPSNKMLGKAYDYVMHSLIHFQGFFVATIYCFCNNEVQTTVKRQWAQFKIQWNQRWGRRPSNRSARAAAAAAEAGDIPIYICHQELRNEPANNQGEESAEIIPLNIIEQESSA
Summary of the method: (§1)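 HTRF IP-One readout of IP1 after 60 min ligand stimulation (LiCl present), cells seeded overnight. Normalized to 100 μM ATP max response. EC50/Emax via 3-parameter logistic curve fit.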

hCTR L368A = molecular target: T2, hCTR L368A (Homo sapiens, UniProt P30988, L368A)
T2 construct: c-Myc (N); expressed in transfected cells
T2 sequence (P30988 25-474 L368A): T1 sequence (P30988 25-474 I371A) with L344A, A347I
Summary of the method: as §1

hCTR T280A = molecular target: T3, hCTR T280A (Homo sapiens, UniProt P30988, T280A)
T3 construct: expressed in transfected cells
T3 sequence (P30988 25-474 T280A): T1 sequence (P30988 25-474 I371A) with T256A, A347I
Summary of the method: as §1

hCTR V358A = molecular target: T4, hCTR V358A (Homo sapiens, UniProt P30988, V358A)
T4 construct: c-Myc (N); expressed in transfected cells
T4 sequence (P30988 25-474 V358A): T1 sequence (P30988 25-474 I371A) with V334A, A347I
Summary of the method: as §1

hCTR Y299A = molecular target: T5, hCTR Y299A (Homo sapiens, UniProt P30988, Y299A)
T5 construct: c-Myc (N); expressed in transfected cells
T5 sequence (P30988 25-474 Y299A): T1 sequence (P30988 25-474 I371A) with Y275A, A347I
Summary of the method: as §1

[1] = IP1, CV1-FlpIn cells, 60 min, LiCl

`CC[C@H](C)[C@H](NC(=O)[C@H](C)NC(=O)[C@@H](NC(=O)[C@H](CCC(N)=O)NC(=O)[C@@H]1CCCN1C(=O)[C@H](Cc1ccccc1)NC(=O)[C@@H](NC(=O)[C@H](Cc1c[nH]cn1)NC(=O)[C@H](Cc1ccccc1)NC(=O)[C@H](CCCCN)NC(=O)[C@H](CC(N)=O)NC(=O)[C@H](Cc1ccccc1)NC(=O)[C@H](CC(=O)O)NC(=O)[C@H](CCC(N)=O)NC(=O)[C@@H](NC(=O)[C@H](Cc1ccc(O)cc1)NC(=O)[C@@H](NC(=O)CNC(=O)[C@H](CC(C)C)NC(=O)[C@H](CCSC)NC(=O)[C@@H]1CSSC[C@H](N)C(=O)NCC(=O)N[C@@H](CC(N)=O)C(=O)N[C@@H](CC(C)C)C(=O)N[C@@H](CO)C(=O)N[C@@H]([C@@H](C)O)C(=O)N1)[C@@H](C)O)[C@@H](C)O)[C@@H](C)O)[C@@H](C)O)C(=O)NCC(=O)N[C@H](C(=O)NCC(=O)N[C@@H](C)C(=O)N1CCC[C@H]1C(N)=O)C(C)C` [hCT] showed an Emax (hCTR I371A) of 42 ± 3%, an Emax (hCTR L368A) of 115 ± 7% and an Emax (hCTR T280A) of 79 ± 6%. It also gave an Emax (hCTR V358A) of 126 ± 9% and an Emax (hCTR Y299A) of 34 ± 5%.
In the case of `CC(C)C[C@H](NC(=O)[C@H](CCCCN)NC(=O)CNC(=O)[C@H](CC(C)C)NC(=O)[C@@H](NC(=O)[C@@H]1CSSC[C@H](N)C(=O)N[C@@H](CO)C(=O)N[C@@H](CC(N)=O)C(=O)N[C@@H](CC(C)C)C(=O)N[C@@H](CO)C(=O)N[C@@H]([C@@H](C)O)C(=O)N1)C(C)C)C(=O)N[C@@H](CO)C(=O)N[C@@H](CCC(N)=O)C(=O)N[C@@H](CCC(=O)O)C(=O)N[C@@H](CC(C)C)C(=O)N[C@@H](Cc1c[nH]cn1)C(=O)N[C@@H](CCCCN)C(=O)N[C@@H](CC(C)C)C(=O)N[C@@H](CCC(N)=O)C(=O)N[C@H](C(=O)N[C@@H](Cc1ccc(O)cc1)C(=O)N1CCC[C@H]1C(=O)N[C@@H](CCCNC(=N)N)C(=O)N[C@H](C(=O)N[C@@H](CC(N)=O)C(=O)N[C@H](C(=O)NCC(=O)N[C@@H](CO)C(=O)NCC(=O)N[C@H](C(=O)N1CCC[C@H]1C(N)=O)[C@@H](C)O)[C@@H](C)O)[C@@H](C)O)[C@@H](C)O` [sCT], the Emax (hCTR I371A) is reported as 31 ± 14%, the Emax (hCTR L368A) is reported as 97 ± 4% and the Emax (hCTR T280A) is reported as 119 ± 5%. It also gave an Emax (hCTR V358A) of 123 ± 6% and an Emax (hCTR Y299A) of 54 ± 5%.
`CSCC[C@H](NC(=O)CNC(=O)[C@H](CO)NC(=O)[C@H](Cc1ccccc1)NC(=O)[C@H](CCCNC(=N)N)NC(=O)[C@H](Cc1c[nH]cn1)NC(=O)[C@H](Cc1ccccc1)NC(=O)[C@H](CC(N)=O)NC(=O)[C@H](CC(N)=O)NC(=O)[C@H](CC(C)C)NC(=O)[C@H](CC(N)=O)NC(=O)[C@H](CCCNC(=N)N)NC(=O)[C@H](Cc1c[nH]c2ccccc12)NC(=O)[C@H](Cc1ccc(O)cc1)NC(=O)[C@H](C)NC(=O)[C@H](CO)NC(=O)[C@H](CC(C)C)NC(=O)[C@@H](NC(=O)[C@@H]1CSSC[C@H](N)C(=O)N[C@@H](CO)C(=O)N[C@@H](CC(N)=O)C(=O)N[C@@H](CC(C)C)C(=O)N[C@@H](CO)C(=O)N[C@@H]([C@@H](C)O)C(=O)N1)C(C)C)C(=O)NCC(=O)N[C@@H](Cc1ccccc1)C(=O)NCC(=O)N1CCC[C@H]1C(=O)N[C@@H](CCC(=O)O)C(=O)N[C@H](C(=O)N1CCC[C@H]1C(N)=O)[C@@H](C)O` [pCT] (H-CSNLSTCVLSAYWRNLNNFHRFSGMGFGPETP-NH2; disulfide 1-7) showed an EC50 (hCTR I371A; [1]) of 4.17 nM, an Emax (hCTR I371A) of 61 ± 6% and an EC50 (hCTR L368A; [1]) of 10 nM. For the same molecule, the Emax (hCTR L368A) was 94 ± 9%, the EC50 (hCTR T280A; [1]) was 2.45 nM and the Emax (hCTR T280A) was 100 ± 6%. It also gave an EC50 (hCTR V358A; [1]) of 3.31 nM, an Emax (hCTR V358A) of 73 ± 6% and an EC50 (hCTR Y299A; [1]) of 0.417 nM. For the same molecule, the Emax (hCTR Y299A) was 52 ± 3%.
